According to patent publication US5505715A, “Iontophoretic transdermal delivery of deoxyspergualin compounds” (priority 1994, dated 1996):
“Also recorded” adds a separate entry of the source. Read-outs that look alike come from different tables or passages of the source.

Tests used:
[1] = test system: immune activity; conditions: cited from earlier work
[2] = cited from earlier work
[3] = test system: human anti-mouse antibody (HAMA) response; conditions: patients treated with monoclonal antibody therapy, cited from earlier work
[4] = set-up: species or system fuzzy rat; conditions: rat, in vivo
Method: Applicants have further conducted an in vivo study to investigate the rate and extent of absorption of DSG in fuzzy rats following transdermal iontophoretic administration. Using iontophoresis, approximately 4 mg of DSG (i.e., between 15-20 mg/kg) was delivered to fuzzy rats over a three-hour period. This is equivalent to a delivery rate of about 230 μg/cm^2 /hr of DSG. Relatively high serum levels of DSG, about 18 μg/ml, were observed after iontophoretic administration.
An aqueous solution of DSG trihydrochloride (10 mg/ml) was prepared two days prior to the experiment and stored at -5° C. until the start of the experiment. This solution was kept refrigerated during the course of the experiment.
Four male fuzzy rats from Harlan Laboratories (Indianapolis, Ind.) were used in this study after a one week quarantine period. The fuzzy rat is a hypotrichotic genetic mutuant of the normal albino rat. The main difference between adult fuzzy and normal haired rats is the poorly developed hair follicles in the skin of the former. As a result, adult fuzzy rats are almost devoid of hair. The fuzzy rats have an intact immune system. […]
Blood samples were taken from the tail artery during the treatment and at the end of the treatment period. […] Blood samples, used electrodes and skin wipes, and urine were analyzed for DSG by scintillation counting. The urine samples were also analyzed by HPLC.

[5] = test system: tumors; conditions: cited from earlier work
[6] = test system: rheumatoid arthritis, diabetes, lupus and multiple sclerosis models; conditions: in vivo; cited from earlier work
[7] = test system: allograft survival; conditions: used prophylactically; cited from earlier work
[8] = test system: interleukin-2 production; conditions: cited from earlier work
[9] = test system: organ transplant rejection; conditions: humans; cited from earlier work
[10] = cited from earlier work; remark: listed apart in the source
[11] = Method: Applicants have evaluated the in vitro delivery of DSG through human cadaver skin using iontophoresis.
An in vitro skin permeation study was conducted to evaluate the iontophoretic transdermal delivery of deoxyspergualin trihydrochloride (DSG) (MW=496) through human cadaver skin mounted in side-by-side glass diffusion cells. A 1.09% w/v solution of DSG was used as the donor solution. The receptor solution was 0.5M NaH2 PO4 aqueous solution. A commercially available power supply (Scepter, Keltronics Corp., Oklahoma City, Okla.) was used. Platinum electrodes were used for this study. The anode was connected to the electrode in the donor side while the cathode was connected to the electrode in the receptor (counterion) fluid. A constant DC current (0.5 mA, 0.78 mA/cm^2) was applied for a period of 48 hours. The receptor solution was sampled at appropriate time intervals. The samples were analyzed for DSG by reverse-phase HPLC using post-column derivatization and fluorescence detection.

[12] = test system: anti-KLH antibody response (keyhole limpet hemocyanin); test: in vivo immunosuppression (anti-KLH antibody response) in fuzzy rats; set-up: species or system fuzzy rat
Text: The humoral response of animals to the foreign protein keyhole limpet hemocyanin (KLH) is used routinely as a model system to test the efficacy of immunosuppressive drugs. Activity in this model has correlated well with activity for suppressing rejection of an allograft or suppressing the development of autoimmune disease in animals. […] The antibody level in the treated animals on the fourteenth day following the initial treatment was still only 6% of the level of the control animals.
Six fuzzy rats were used in this study. The procedure for this study was based on the model described by Tepper et al., Inhibition of Antibody Production by the Immunosuppressive Agent, 15-Deoxyspergualin, Transplant Proc., 23:328-32 (1991). This model involves immunizing the animals with a potent immunogenic antigen, keyhole limpet hemocyanin (KLH). The serum anti-KLH antibody levels (immune response) in the control and treated animals are then measured over 14 days. An effective immunosuppressive agent should result in a suppression of the immune response in the treated animals.
All six fuzzy rats were immunized with a solution of keyhole limpet hemocyanin (1 mg) by intraperitoneal injection. Two rats were used as controls and were not treated with DSG. The other four rats received DSG by transdermal iontophoresis. The electrodes and power supply used in the study of Example 2 were also used for this study. DSG solution (1.5 ml, 15.34 mg) was added to the donor (active) electrode just prior to the experiment. The electrodes were applied to each of the four participating fuzzy rats (one on either side of the spine). Prior to DSG treatment, the animals were anesthetized with METOFANE (methoxyflurane, Pitman-Moore, Mundelein, Ill.) and the hair on the dorsal side depilated. An anesthetic cocktail consisting of 10 ml of KETASET (ketamine HCL, 100 mg/ml; Aveco Co., Inc., Fort Dodge, Iowa) mixed with 2 ml ROMPUN (xylazine, 20 mg/ml; Mobay Corp., Shawnee, Kans.) was used at 0.1 ml per 100 g in order to maintain the animals under anesthesia during the treatment period. A current density of 0.5 mA/cm^2 /hr (2.9 mA total) was used to deliver the DSG. The four rats received DSG by iontophoresis for 3 hours daily over a period of three days (Days 0, 1 and 2) (Day 0 was the first day of the experiment). During this period food and water were provided ad libitum and these four animals were housed individually in metabolic cages so that urine could be collected for analysis. On Day 3 the animals were weighed and then returned to their regular cages for the remaining duration of the study. […]
The blood samples were stored on ice for 1 hour to coagulate and then centrifuged. The serum was separated and analyzed using an ELISA method described below. […] Aliquots were analyzed by HPLC. […]

N=C(N)NCCCCCCC(=O)NC(O)C(=O)NCCCCNCCCN (stereo not drawn) [DSG]
immunosuppressive activity (in words) [1]: excellent immunosuppressive activity | immunosuppressive potency relative to marketed immunosuppressants ([1]; versus cyclosporin A, azathioprine and prednisone): at least as potent as other, currently marketed immunosuppressants | Cmax ([2]; 4 mg/kg by 3 hour i.v. infusion): about 10 μg/ml | clearance from plasma (in words) ([2]; human, in vivo): relatively rapid clearance | plasma clearance ([2]; human, in vivo): about 48,000 ml/hr | activity against HAMA response [3]: immunosuppressive activity against the human anti-mouse antibody (HAMA) response | activity against HAMA response ([3]; listed as Deoxyspergualin): useful to suppress human anti-mouse antibody (HAMA) response | dose delivered by iontophoresis per body weight [4]: 15 to 20 mg/kg | serum level of DSG ([4]; topical or ocular, 3 h): about 18 μg/ml | antitumor efficacy [5]: appears to have antitumor efficacy | activity in animal models of autoimmune disease [6]: effective in animal models in the treatment of autoimmune diseases like rheumatoid arthritis, diabetes and multiple sclerosis | activity in extending allograft survival [7]: significant activity in extending allograft survival | inhibition of interleukin-2 production [8]: does not inhibit interleukin-2production | clinical activity as an immunosuppressant [9]: clinical activity as an immunosuppressant | side effect profile ([10]; compared to cyclosporin A, azathioprine and prednisone (b7 also OKT3)): superior side effect profile | dose limiting toxicity ([10]; in vivo): myelosuppression | nephrotoxicity ([10]; unlike cyclosporin A): not nephrotoxic | change of permeation rate in later time period [11]: permeation rate decreased during the later time period | equivalent delivery for a 10 cm^2 delivery system [11]: 135 mg/day | equivalent dose for a 70 kg average body weight person [11]: 2 mg/kg/day | expected delivery for a 20 cm^2 donor electrode [11]: 270 mg/day | passive permeation across human cadaver skin [11]: very little passive permeation | permeation rate across human cadaver skin [11]: 564 μg/cm^2 /hr | antibody level in treated animals as % of control ([12]; Day 14, iontophoresis 3 hours daily for three days): 6% | suppression of immune response ([12]; iontophoresis 3 hours daily for three days, versus untreated control): substantially suppressed the immune response; also recorded: effectively suppressed the immune response | deaths before Day 7 ([12]; of four rats treated by iontophoresis): Two | dose delivered relative to maximum tolerated dose (MTD) ([12]; rat, in vivo): proximate to the maximum tolerated dose (MTD)
